Values quoted from earlier work as cited in US20180008675A1, “USE OF URODILATING FOR PREPARING A MEDICAMENT FOR TREATMENT OF CARDIOVASCULAR, RENAL, PULMONARY, AND NEURONAL SYNDROMES WHILE AVOIDING A REBOUND” (CARDIORENTIS AG, priority 2010, published 2018).

Columns and labels:
dogs = dogs (Riegger et al., 1990)
[1] = tested on: patients with chronic congestive heart failure / acute decompensated heart failure
[2] = tested on: patients with chronic congestive heart failure; settings: 10-hour infusion, 15 ng/kg/min

For urodilatin, the “effect compared to other natriuretic peptides, such as ANP” value (dogs) is listed as “better effect in dogs”, the “changes of the cardiac index (CI)” value ([1]; 15 and 30 ng/kg/min (Mitrovic et al., 2006)) is listed as “significant increase” and the “changes of the baseline in pulmonary capillary wedge pressure (PCWP)” value ([1]; 15 and 30 ng/kg/min, compared with the placebo group (Mitrovic et al., 2006)) is listed as “significant reductions”. For the same substance, the “pulmonary capillary wedge pressure (PCWP), loss of effect during infusion” value ([1]; after 6 to 8 hours of infusion (Mitrovic et al., 2006, FIG. 2A)) was “slight increase of PCWP”, the “cardiac index (CI), loss of effect during infusion” value ([1]; after 6 to 8 hours of infusion (Mitrovic et al., 2006, FIG. 2C)) was “partial drop of CI” and the “symptoms, morbidity and mortality” value ([1]; all doses, acute decompensated heart failure (Mitrovic et al., 2005 and 2006)) was “significantly improved”. For the same substance, the “central venous pressure (CVP)” value ([2]; NYHA III chronic congestive heart failure (Eisner et al., 1995)) was “increases slightly already after 5 hours of infusion” and the urine flow ([2]; chronic congestive heart failure (Eisner et al., 1995)) was “loss of action after 8 hours of infusion”.
